Consider two compounds from patent US5980914A (priority 1997, dated 1999).

“Also recorded” adds a separate entry of the source.

For data set [1] the following is noted: mass spectrophotometry; cited from earlier work.
The next data set relates to Heliocobacter pylori. Particulars: in vivo; cited from earlier work.
The conditions of data set [2]: in vivo; cited from earlier work.
For data set [3] the following is noted: mass spectrophotometry; cited from earlier work. This is another data set of the same source.
The subject of the next data set is neurotoxic injury. Particulars: in vivo; cited from earlier work.
For data set [4] the following is noted: unconjugated clioquinol, injected intravenously; crosses the blood-brain-barrier; cited from earlier work.
Data set [5] concerns vitamin B12 ([^57 Co]-cyanocobalamine) metabolism. The data set can be described thus: Influence of clioquinol on vitamin B12 in vivo: [57Co]-cyanocobalamine radioactivity in dissected tissues. The arrangement: species or system mice. As to the method:
After three days, all of the mice were injected with [^57 Co]-cyanocobalamine. After two days, the animals were sacrificed, and the brain, liver and kidney were dissected and counted in a gamma-counter as thousand cpm/g tissue (wet weight)±SEM. The radioactivities in each of the groups are stated in Table 1 below: […]

For data set [6] the following is noted: monkeys, microautoradiographic techniques; terminal axodendritic boutons of the mossy fibres; cited from earlier work.
For data set [7] the following is noted: mass spectrophotometry; cited from earlier work. This is another data set of the same source.
Data set [8] in a line: Solubility in water / aqueous solutions. Particulars: water / aqueous solutions for NMR testing. Type of data set: physicochemical. As to the method: (§1) The mixture was analyzed by ^1 H NMR.
(§2) Three different solutions were prepared and their ^1 H NMR spectra were recorded in a DRX 400 MHz spectrophotometer at 20° C. Solution a) contained free vitamin B12 (hydroxycobalamin) in a concentration of 2.6 mM.

For data set [9] the following is noted: cited from earlier work.
The conditions of data set [10]: mass spectrophotometry; cited from earlier work. The source holds these as a separate data set.
For data set [11] the following is noted: mass spectrophotometry; cited from earlier work. This is another data set of the same source.
The nature of data set [12]: 1H NMR interaction of vitamin B12 with clioquinol glucuronide. Type of data set: binding. As to the method: FIG. 1 depicts the NMR spectra of three solutions. Solution a contained vitamin B12 (hydroxycobalamin), at a concentration of 2.6 mM.
as §1, §2

`Oc1c(I)cc(Cl)c2cccnc12` [Clioquinol, 5-chloro-7-iodo-8 hydroxyquinoline]: the “coordination number for Ni(II)” value in data set [1] is 2. The “effect in the treatment of Heliocobacter pylori” value in the data set on Heliocobacter pylori is on record as “effective”. The excretion result in data set [2] is “excreted through the kidneys as glucuronide or sulfate derivatives; also recorded: excreted through the kidneys as glucuronide derivatives”. In addition, in data set [3], the “coordination number for Cu(II)” value is listed as 2. In the data set on neurotoxic injury, the “effect in the treatment of neurotoxic injury” value is “effective”. The “penetration into the nervous system” value in data set [4] is recorded as “extremely rapid penetration into the nervous system”. In data set [5] (brain, clioquinol 50 mg/kg/day, [57Co]-cyanocobalamine after three days, sacrificed after two days, ±SEM, control 9.4 ± 0.9), the “radioactivity, Brain” value is 8.4 ± 1.5 thousand cpm/g tissue (wet wei. In data set [5] (kidney, versus control), the “amount of vitamin B12 trapped in the kidneys, in words” value is “decreased in the kidney; also recorded: A reduction in the amount of vitamin B12 trapped in the kidneys”. Further, the “radioactivity, Kidney” value in data set [5] (kidney, clioquinol 50 mg/kg/day, [57Co]-cyanocobalamine after three days, sacrificed after two days, ±SEM, control 895 ± 207) is recorded as 252 ± 61 thousand cpm/g tissue (wet wei. Also, the “radioactivity, Liver” value in data set [5] (liver, clioquinol 50 mg/kg/day, [57Co]-cyanocobalamine after three days, sacrificed after two days, ±SEM, control 97 ± 8) is recorded as 85 ± 21 thousand cpm/g tissue (wet wei. In addition, the “zinc chelates in the hippocampus” value in data set [6] is “form zinc chelates in the hippocampus”. The “coordination number for Co(II)” value in data set [7] is given as 2. For the same compound, the solubility in water entry in data set [8] is listed as “cannot be dissolved in aqueous solutions”. The “concentration in areas of the brain such as the hippocampus, in words” value in data set [9] is given as “high”. Also, the “coordination number for Fe(III)” value in [10] is 3. For the same compound, in [11], the “coordination number for Zn(II)” value was 2.
With `COC(=O)[C@H]1OC(Oc2c(I)cc(Cl)c3cccnc23)[C@H](OC(C)=O)[C@@H](OC(C)=O)[C@@H]1OC(C)=O` (stereo partly shown) [clioquinol glucuronide, methyl(5-chloro-7-iodo-quinolyl-2',3',4'-tri-O-acetyl-glycopyranosid)uronate], the “shift of resonances in the mixture” value in [12] (aromatic region, benzimidazole moiety (vitamin B12), quinoline moiety (clioquinol glucuronide)) is listed as “the same is observed for two resonances of the clioquinol glucuronide”. The “interaction between clioquinol glucuronide and vitamin B12” value in data set [12] (buffered water pH 6.5, 20° C, 2.6 mM vitamin B12 + 10 mM clioquinol glucuronide) is “hydrophobic interaction between clioquinol glucuronide and vitamin B12; also recorded: vitamin B12 binds to clioquinol glucuronide”. Further, the solubility in water result in data set [8] was “soluble in water”.
